Laboratory results taken from patent US20070276141A1, “Preparation of Pharmaceutical Salts of [1,4] - Bipiperidine” (priority 2003, published 2007).

Experiment: Relative stability of solid forms
Type: physicochemical
Conditions: test conditions not given

## Cc1ccc(S(=O)(=O)NC(=O)N2CCC(N3CCC(Oc4ccc(Cl)c(Cl)c4)CC3)CC2)cc1 [Hydrate Form A, N-[[4-(3,4-dichlorophenoxy)[1,4′-bipiperidin]-1′-yl]carbonyl]-4-methyl-benzenesulfonamide]
  stability compared with other solid forms of the sodium salt: more stable than Hydrate Forms B and D and Solvated Form E
